Measured values taken from patent publication US20140120083A1, “TREATMENT OF CANCERS USING PI3 KINASE ISOFORM MODULATORS” (INFINITY PHARMACEUTICALS, INC., priority 2012, published 2014).
pIC50: −log10 of the molar value.

What was measured:
Type in all cases: biochemical
PI3K γ = target: T1, PI3K γ (Homo sapiens, UniProt P48736); experiment: In vitro IC50, PI3K γ
T1 construct: purchased Sigma
From the text: (§1) An exemplary system is PI 3-Kinase (human) HTRF™ Assay from Upstate.

PI3K α = target: T2, PI3K α (Homo sapiens, UniProt P42336); experiment: In vitro IC50, PI3K α
T2 construct: purchased Upstate
T2 sequence (P42336 whole entry): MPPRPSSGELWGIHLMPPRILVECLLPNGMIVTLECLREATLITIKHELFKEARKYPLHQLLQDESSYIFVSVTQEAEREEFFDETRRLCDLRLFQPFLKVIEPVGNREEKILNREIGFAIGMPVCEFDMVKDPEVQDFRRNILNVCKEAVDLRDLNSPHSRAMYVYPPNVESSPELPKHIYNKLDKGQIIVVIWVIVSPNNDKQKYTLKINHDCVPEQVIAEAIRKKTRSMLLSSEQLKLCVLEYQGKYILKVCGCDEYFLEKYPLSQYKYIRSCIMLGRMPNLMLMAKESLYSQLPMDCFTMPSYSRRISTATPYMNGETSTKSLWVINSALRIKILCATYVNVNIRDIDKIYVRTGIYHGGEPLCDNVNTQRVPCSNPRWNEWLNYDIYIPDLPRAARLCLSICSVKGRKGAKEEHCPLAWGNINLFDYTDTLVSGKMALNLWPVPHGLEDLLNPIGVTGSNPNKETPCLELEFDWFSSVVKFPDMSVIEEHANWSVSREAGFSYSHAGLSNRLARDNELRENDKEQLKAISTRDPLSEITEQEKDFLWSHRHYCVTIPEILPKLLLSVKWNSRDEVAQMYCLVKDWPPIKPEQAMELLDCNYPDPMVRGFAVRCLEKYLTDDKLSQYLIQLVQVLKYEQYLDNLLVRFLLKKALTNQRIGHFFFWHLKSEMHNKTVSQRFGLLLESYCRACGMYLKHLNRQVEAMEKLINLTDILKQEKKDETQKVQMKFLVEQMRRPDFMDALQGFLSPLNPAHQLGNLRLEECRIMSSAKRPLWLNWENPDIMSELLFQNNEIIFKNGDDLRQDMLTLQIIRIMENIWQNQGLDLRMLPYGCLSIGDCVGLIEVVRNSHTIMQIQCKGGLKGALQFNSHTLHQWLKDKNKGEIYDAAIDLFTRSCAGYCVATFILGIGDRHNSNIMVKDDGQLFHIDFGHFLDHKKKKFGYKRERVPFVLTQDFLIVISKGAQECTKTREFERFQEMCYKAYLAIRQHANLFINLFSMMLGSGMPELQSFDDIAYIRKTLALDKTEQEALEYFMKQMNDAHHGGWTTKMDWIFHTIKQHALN
T2 sequence (P27986 whole entry partner): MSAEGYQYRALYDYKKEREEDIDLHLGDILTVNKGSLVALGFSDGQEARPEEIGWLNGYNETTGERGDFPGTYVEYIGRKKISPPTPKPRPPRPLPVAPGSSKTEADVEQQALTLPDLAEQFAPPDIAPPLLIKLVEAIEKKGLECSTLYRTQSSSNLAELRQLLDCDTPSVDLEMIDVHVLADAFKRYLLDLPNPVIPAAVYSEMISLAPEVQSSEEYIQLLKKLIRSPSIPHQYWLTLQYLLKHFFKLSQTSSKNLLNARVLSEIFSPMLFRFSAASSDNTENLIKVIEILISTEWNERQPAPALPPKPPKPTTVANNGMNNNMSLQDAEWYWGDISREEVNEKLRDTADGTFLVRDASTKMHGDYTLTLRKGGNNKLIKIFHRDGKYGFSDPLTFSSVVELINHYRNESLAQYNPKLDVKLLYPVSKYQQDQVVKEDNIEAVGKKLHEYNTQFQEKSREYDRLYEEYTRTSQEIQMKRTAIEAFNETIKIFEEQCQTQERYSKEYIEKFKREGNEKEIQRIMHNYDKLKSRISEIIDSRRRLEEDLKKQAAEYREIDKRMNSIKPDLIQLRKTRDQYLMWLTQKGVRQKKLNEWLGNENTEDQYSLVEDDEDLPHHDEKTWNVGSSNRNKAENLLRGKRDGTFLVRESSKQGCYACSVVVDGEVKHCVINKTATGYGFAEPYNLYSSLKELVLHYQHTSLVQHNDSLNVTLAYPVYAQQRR
From the text: as §1

PI3K β = PI3K β (Homo sapiens, UniProt P42338); experiment: In vitro IC50, PI3K β
PI3K β, sequence (P42338 whole entry): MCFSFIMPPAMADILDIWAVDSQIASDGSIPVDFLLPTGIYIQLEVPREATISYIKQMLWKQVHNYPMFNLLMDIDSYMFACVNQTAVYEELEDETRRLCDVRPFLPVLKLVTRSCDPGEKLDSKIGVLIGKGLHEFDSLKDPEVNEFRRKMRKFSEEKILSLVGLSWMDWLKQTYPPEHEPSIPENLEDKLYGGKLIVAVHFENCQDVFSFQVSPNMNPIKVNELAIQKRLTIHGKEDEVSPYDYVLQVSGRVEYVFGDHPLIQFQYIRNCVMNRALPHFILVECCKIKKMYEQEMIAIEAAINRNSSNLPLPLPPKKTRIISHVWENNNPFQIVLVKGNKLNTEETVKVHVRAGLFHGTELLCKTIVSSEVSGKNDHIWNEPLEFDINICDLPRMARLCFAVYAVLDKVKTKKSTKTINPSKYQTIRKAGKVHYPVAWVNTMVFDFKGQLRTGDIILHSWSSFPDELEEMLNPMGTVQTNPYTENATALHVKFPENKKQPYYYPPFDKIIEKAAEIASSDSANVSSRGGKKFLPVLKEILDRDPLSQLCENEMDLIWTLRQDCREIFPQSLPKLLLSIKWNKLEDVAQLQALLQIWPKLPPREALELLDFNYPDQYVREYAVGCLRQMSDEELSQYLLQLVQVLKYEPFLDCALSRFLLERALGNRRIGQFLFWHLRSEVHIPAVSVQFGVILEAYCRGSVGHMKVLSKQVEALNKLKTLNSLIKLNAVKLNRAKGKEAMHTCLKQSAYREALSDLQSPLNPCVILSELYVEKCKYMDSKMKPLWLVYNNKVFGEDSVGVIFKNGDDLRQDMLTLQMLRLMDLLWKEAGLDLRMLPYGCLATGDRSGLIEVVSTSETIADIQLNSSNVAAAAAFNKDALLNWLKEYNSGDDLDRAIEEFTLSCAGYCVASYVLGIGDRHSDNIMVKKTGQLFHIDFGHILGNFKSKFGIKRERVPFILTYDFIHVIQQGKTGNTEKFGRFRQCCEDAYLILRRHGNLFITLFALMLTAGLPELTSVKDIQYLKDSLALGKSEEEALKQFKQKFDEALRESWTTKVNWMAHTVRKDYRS
From the text: as §1

PI3K δ = PI3K δ (Homo sapiens, UniProt O00329); experiment: In vitro IC50, PI3K δ; set-up: purchased Upstate
PI3K δ, sequence (O00329 whole entry): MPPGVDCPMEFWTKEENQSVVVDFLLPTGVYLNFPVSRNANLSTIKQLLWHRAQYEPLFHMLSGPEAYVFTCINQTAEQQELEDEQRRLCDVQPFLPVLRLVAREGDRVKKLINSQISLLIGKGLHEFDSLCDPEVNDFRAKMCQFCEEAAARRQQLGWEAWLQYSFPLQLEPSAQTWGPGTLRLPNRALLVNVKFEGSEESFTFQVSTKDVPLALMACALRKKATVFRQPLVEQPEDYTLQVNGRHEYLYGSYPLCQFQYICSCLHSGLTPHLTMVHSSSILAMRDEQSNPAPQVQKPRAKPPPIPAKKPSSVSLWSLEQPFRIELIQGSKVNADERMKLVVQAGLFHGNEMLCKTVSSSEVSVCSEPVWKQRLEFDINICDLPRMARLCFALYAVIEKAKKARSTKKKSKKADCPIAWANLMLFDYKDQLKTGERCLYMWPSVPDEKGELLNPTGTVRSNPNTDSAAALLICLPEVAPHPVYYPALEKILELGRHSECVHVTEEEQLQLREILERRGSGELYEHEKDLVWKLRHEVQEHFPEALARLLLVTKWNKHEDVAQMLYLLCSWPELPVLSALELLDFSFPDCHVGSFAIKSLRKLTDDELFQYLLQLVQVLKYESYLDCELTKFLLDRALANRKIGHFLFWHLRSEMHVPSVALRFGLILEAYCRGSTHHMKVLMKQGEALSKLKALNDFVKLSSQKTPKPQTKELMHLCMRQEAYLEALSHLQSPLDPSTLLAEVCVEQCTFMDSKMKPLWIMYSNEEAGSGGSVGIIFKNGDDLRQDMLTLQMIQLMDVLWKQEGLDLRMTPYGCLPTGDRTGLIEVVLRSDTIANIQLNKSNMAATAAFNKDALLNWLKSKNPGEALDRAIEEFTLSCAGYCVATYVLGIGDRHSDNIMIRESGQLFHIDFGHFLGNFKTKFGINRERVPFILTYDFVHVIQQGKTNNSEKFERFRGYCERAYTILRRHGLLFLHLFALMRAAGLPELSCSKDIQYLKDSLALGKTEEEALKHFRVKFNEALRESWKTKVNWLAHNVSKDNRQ
PI3K δ, sequence (P27986 whole entry partner): as the sequence (P27986 whole entry partner) above
From the text: as §1

T1 sequence (P48736 whole entry): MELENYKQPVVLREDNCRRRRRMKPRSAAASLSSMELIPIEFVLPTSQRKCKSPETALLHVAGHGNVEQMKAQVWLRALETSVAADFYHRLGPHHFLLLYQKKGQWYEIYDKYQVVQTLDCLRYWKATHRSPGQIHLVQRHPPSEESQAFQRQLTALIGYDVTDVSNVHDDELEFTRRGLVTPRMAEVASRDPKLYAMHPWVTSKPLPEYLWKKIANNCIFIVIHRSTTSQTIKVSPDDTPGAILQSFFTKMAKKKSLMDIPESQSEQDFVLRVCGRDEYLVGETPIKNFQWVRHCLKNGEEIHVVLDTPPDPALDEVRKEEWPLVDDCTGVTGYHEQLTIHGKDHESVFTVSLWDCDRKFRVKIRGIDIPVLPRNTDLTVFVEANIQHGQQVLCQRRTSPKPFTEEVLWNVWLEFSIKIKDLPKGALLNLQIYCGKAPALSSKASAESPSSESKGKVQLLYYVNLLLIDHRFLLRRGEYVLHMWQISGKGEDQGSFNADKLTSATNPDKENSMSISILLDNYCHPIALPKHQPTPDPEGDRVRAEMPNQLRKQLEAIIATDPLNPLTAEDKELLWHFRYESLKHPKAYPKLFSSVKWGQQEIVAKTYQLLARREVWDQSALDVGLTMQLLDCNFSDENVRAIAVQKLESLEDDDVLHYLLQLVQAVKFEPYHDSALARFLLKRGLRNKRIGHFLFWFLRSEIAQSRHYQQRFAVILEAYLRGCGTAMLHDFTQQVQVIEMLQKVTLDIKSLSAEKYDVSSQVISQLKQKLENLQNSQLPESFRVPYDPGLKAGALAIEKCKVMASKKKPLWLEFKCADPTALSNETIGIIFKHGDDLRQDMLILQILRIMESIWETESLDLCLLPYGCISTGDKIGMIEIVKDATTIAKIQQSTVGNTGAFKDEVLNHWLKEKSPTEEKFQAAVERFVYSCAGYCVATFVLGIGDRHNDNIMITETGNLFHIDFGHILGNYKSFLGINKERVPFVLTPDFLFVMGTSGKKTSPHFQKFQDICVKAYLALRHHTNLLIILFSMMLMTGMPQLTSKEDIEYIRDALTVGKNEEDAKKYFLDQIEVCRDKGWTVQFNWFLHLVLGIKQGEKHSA

SMILES	pIC50 (PI3K γ)	pIC50 (PI3K α)	pIC50 (PI3K β)	pIC50 (PI3K δ)
Cc1cccc2cc(Cn3nc(C#C[C@@H](C)O)c4c(N)ncnc43)n(-c3ccccc3O)c(=O)c12 [Compound 91]	> 5.00	< 5.00	< 5.00	> 7.00
Cc1cccnc1-n1c(Cn2nc(-c3cc(O)cc(F)c3)c3c(N)ncnc32)cc2ccccc2c1=O [Compound 93]	> 6.00	< 5.00	< 5.00	> 7.00
Cc1cccc2cc(Cn3nc(-c4cc(O)cc(F)c4)c4c(N)ncnc43)n(-c3ccccc3C(C)C)c(=O)c12 [Compound 95]	> 7.00	> 6.00	> 6.00	> 7.00
Cc1cccc2cc(Cn3nc(-c4cccc(O)c4)c4c(N)ncnc43)n(-c3ccccc3Cl)c(=O)c12 [Compound 96]	> 7.00	< 5.00	> 5.00	> 7.00
Cc1cccc2cc(Cn3nc(-c4cc(O)cc(F)c4)c4c(N)ncnc43)n(-c3ccccc3Cl)c(=O)c12 [Compound 97]	> 7.00	> 5.00	> 6.00	> 7.00
Cc1cccc2cc(Cn3nc(C#C[C@@H](C)O)c4c(N)ncnc43)n(-c3ccccc3Cl)c(=O)c12 [Compound 98]	> 6.00	< 5.00	< 5.00	> 7.00
CCc1ccccc1-n1c(Cn2nc(C#C[C@@H](C)O)c3c(N)ncnc32)cc2cccc(C)c2c1=O [Compound 99]	> 6.00	< 5.00	> 5.00	> 7.00
Cc1cccc2cc(Cn3nc(C#C[C@@H](C)O)c4c(N)ncnc43)n(C3CC3)c(=O)c12 [Compound 100]	> 6.00	< 5.00	> 6.00	> 7.00
Cc1cccc2cc(Cn3nc(-c4cc(O)cc(F)c4)c4c(N)ncnc43)n(C3CC3)c(=O)c12 [Compound 101]	> 7.00	> 6.00	> 7.00	> 7.00
Cc1cccc2cc(Cn3nc(-c4cccc(O)c4)c4c(N)ncnc43)n(C3CC3)c(=O)c12 [Compound 102]	> 7.00	> 6.00	> 6.00	> 7.00
Cc1cccc2cc(Cn3nc(I)c4c(N)ncnc43)n(-c3ccccc3OCCN3CCOCC3)c(=O)c12 [Compound 103]	> 6.00	< 5.00	< 5.00	> 7.00
Cc1cccc2cc(Cn3nc(I)c4c(N)ncnc43)n(C3CCC3)c(=O)c12 [Compound 105]	> 5.00	< 5.00	< 5.00	> 7.00
COc1cccc(-c2nn(Cc3cc4cccc(C)c4c(=O)n3-c3ccccc3C)c3ncnc(N)c23)c1 [Compound 106]	> 6.00	< 5.00	> 5.00	> 6.00
Cc1cccc2cc(Cn3nc(I)c4c(N)ncnc43)n(C)c(=O)c12 [Compound 107]	> 5.00	< 5.00	< 5.00	> 6.00
Cc1cccc2cc(Cn3nc(-c4cc(O)cc(F)c4)c4c(N)ncnc43)n(-c3ccccc3OCCN3CCOCC3)c(=O)c12 [Compound 108]	> 6.00	> 5.00	> 5.00	> 7.00
Cc1cccc2cc(Cn3nc(-c4cccc(O)c4)c4c(N)ncnc43)n(-c3ccccc3OCCN3CCOCC3)c(=O)c12 [Compound 109]	> 6.00	< 5.00	< 5.00	> 7.00
Nc1ncnc2c1c(-c1cc(O)cc(F)c1)nn2Cc1cc2cccc(Cl)c2c(=O)n1C1CC1 [Compound 142]	> 7.00	> 7.00	> 7.00	> 7.00
Cc1ccccc1-n1c(Cn2nc(-c3ccc4nc(N)sc4c3)c3c(N)ncnc32)cc2cccc(C)c2c1=O [Compound 145]	> 7.00	> 6.00	> 5.00	> 7.00
Cc1cccc2cc(Cn3nc(-c4cccc(O)c4)c4c(N)ncnc43)n(-c3ccccc3)c(=O)c12 [Compound 146]	> 7.00	< 5.00	< 5.00	> 7.00
Cc1cccc2cc(Cn3nc(-c4cc(O)cc(F)c4)c4c(N)ncnc43)n(-c3ccccc3)c(=O)c12 [Compound 147]	> 7.00	> 6.00	> 5.00	> 7.00
Cc1ccccc1-n1c(Cn2nc(-c3ccc4nc(N)ccc4c3)c3c(N)ncnc32)cc2cccc(C)c2c1=O [Compound 149]	> 7.00	> 6.00	> 5.00	> 7.00
Cc1ccccc1-n1c(Cn2nc(-c3ccc4nc(N)ncc4c3)c3c(N)ncnc32)cc2cccc(C)c2c1=O [Compound 150]	> 7.00	> 7.00	> 6.00	> 7.00
Cc1ccccc1-n1c(Cn2nc(-c3ccc4oc(N)nc4c3)c3c(N)ncnc32)cc2cccc(C)c2c1=O [Compound 151]	> 7.00	> 6.00	> 5.00	> 7.00

SMILES	pIC50 (PI3K γ)	pIC50 (PI3K α)	pIC50 (PI3K β)	pIC50 (PI3K δ)
Cc1ccccc1-n1c(Cn2nc(-c3ccc4ncnc(N)c4c3)c3c(N)ncnc32)cc2cccc(C)c2c1=O [Compound 152]	> 7.00	> 5.00	< 5.00	> 7.00
Cc1ccccc1-n1c(Cn2nc(-c3cn[nH]c3)c3c(N)ncnc32)cc2cccc(C)c2c1=O [Compound 160]	> 7.00	< 5.00	> 5.00	> 7.00
Cc1cccc2cc(Cn3nc(-c4cn[nH]c4)c4c(N)ncnc43)n(-c3ccccc3F)c(=O)c12 [Compound 161]	> 6.00	< 5.00	> 5.00	> 7.00
Cc1cccc2cc(Cn3nc(-c4cnn(CCO)c4)c4c(N)ncnc43)n(-c3ccccc3F)c(=O)c12 [Compound 162]	> 6.00	< 5.00	< 5.00	> 7.00
Cc1cccc2cc(Cn3nc(-c4cnn(C)c4)c4c(N)ncnc43)n(-c3ccccc3F)c(=O)c12 [Compound 164]	> 5.00	< 5.00	< 5.00	> 5.00
Cc1ccccc1-n1c(Cn2nc(-c3cnn(C)c3)c3c(N)ncnc32)cc2cccc(C)c2c1=O [Compound 165]	> 6.00	< 5.00	< 5.00	> 5.00
Cc1cccc2cc(Cn3nc(-c4cn[nH]c4)c4c(N)ncnc43)n(-c3cccc(F)c3)c(=O)c12 [Compound 166]	> 6.00	< 5.00	< 5.00	> 7.00
Cc1cccc2cc(C(C)Nc3ncnc4[nH]cnc34)n(-c3ccccc3F)c(=O)c12 (stereo not shown) [Compound 167]	> 7.00	< 5.00	> 5.00	> 7.00
Cc1cccc2cc(Cn3nc(C#N)c4c(N)ncnc43)n(-c3ccccc3F)c(=O)c12 [Compound 169]	< 5.00	< 5.00	< 5.00	> 7.00
Cc1ccccc1-n1c(Cn2nc(C#N)c3c(N)ncnc32)cc2cccc(C)c2c1=O [Compound 170]	> 5.00	< 5.00	< 5.00	> 7.00
Cc1cccc2cc(Cn3nc(/C=C4/SC(=O)NC4=O)c4c(N)ncnc43)n(-c3ccccc3F)c(=O)c12 [Compound 171]	> 7.00	> 5.00	> 5.00	> 7.00
Cc1cccc2cc(Cn3nc(/C=C4/CCNC4=O)c4c(N)ncnc43)n(-c3ccccc3F)c(=O)c12 [Compound 172]	< 5.00	< 5.00	< 5.00	> 5.00
Cc1ccccc1-n1c(Cn2nc(/C=C3/SC(=O)NC3=O)c3c(N)ncnc32)cc2cccc(C)c2c1=O [Compound 173]	> 7.00	> 5.00	> 5.00	> 7.00
Cc1ccccc1-n1c(Cn2nc(/C=C/C(N)=O)c3c(N)ncnc32)cc2cccc(C)c2c1=O [Compound 174]	> 7.00	< 5.00	> 5.00	> 7.00
Cc1ccccc1-n1c(Cn2nc(CCC(N)=O)c3c(N)ncnc32)cc2cccc(C)c2c1=O [Compound 175]	> 5.00	< 5.00	< 5.00	> 6.00
CCn1c(Cn2nc(-c3ccc4nc(NC(C)=O)sc4c3)c3c(N)ncnc32)cc2cccc(C)c2c1=O [Compound 176]	> 7.00	> 7.00	> 6.00	> 7.00
CC(=O)Nc1nc2ccc(-c3nn(Cc4cc5cccc(C)c5c(=O)n4-c4ccccc4)c4ncnc(N)c34)cc2s1 [Compound 177]	> 7.00	> 6.00	> 5.00	> 7.00
C=Cc1nn(Cc2cc3cccc(C)c3c(=O)n2-c2ccccc2F)c2ncnc(N)c12 [Compound 179]	> 5.00	< 5.00	< 5.00	> 6.00
C=Cc1nn(Cc2cc3cccc(C)c3c(=O)n2-c2ccccc2C)c2ncnc(N)c12 [Compound 180]	> 6.00	< 5.00	< 5.00	> 7.00
COc1cc(F)cc(-c2nn(Cc3cc4cccc(C)c4c(=O)n3-c3ccccc3C)c3ncnc(N)c23)c1 [Compound 181]	> 5.00	< 5.00	< 5.00	> 6.00
Cc1ccccc1-n1c(Cn2nc(-c3ccn[nH]3)c3c(N)ncnc32)cc2cccc(C)c2c1=O [Compound 182]	> 7.00	< 5.00	< 5.00	> 6.00
Cc1cccc2cc(Cn3nc(-c4ccn[nH]4)c4c(N)ncnc43)n(-c3ccccc3F)c(=O)c12 [Compound 183]	> 5.00	< 5.00	< 5.00	> 6.00
Cc1cccc2cc(Cn3nc(-c4cn[nH]c4)c4c(N)ncnc43)n(-c3ccccc3C(C)C)c(=O)c12 [Compound 185]	> 7.00	> 5.00	> 6.00	> 7.00
